pIC50: −log10 of the molar value. ≈ marks a conversion by molar mass, not a printed value. Where two headings read alike, the source gives them in different places.
How the values were obtained:
P. aeruginosa CDC-0110 = assay: microbe, parasite or virus in culture; assay type: cell-based; conditions: Pseudomonas aeruginosa, CDC0110, read-out: Minimum inhibitory concentration, P. aeruginosa CDC-0110
E. coli AG100 = assay: microbe, parasite or virus in culture; assay type: cell-based; conditions: Escherichia coli, AG100, read-out: MIC E. coli AG100
E. coli D22 = assay: microbe, parasite or virus in culture; assay type: cell-based; conditions: Escherichia coli, D22, read-out: MIC E. coli D22
E. coli AG100A = assay: Broth microdilution MIC in CAMHB; assay type: cell-based; conditions: Escherichia coli, read-out: MIC E. coli AG100A
K. pneumoniae 848844 = assay: microbe, parasite or virus in culture; assay type: cell-based; conditions: Klebsiella pneumoniae, 848844, read-out: MIC K. pneumoniae 848844
P. aeruginosa ATCC 27853 = assay: microbe, parasite or virus in culture; assay type: cell-based; conditions: Pseudomonas aeruginosa, ATCC27853, read-out: MIC P. aeruginosa ATCC 27853
[1] = tested on: P. aeruginosa (ΔmexAB-oprM); assay: Broth microdilution MIC in CAMHB; assay type: cell-based
B. pseudomallei Bp82 = assay: microbe, parasite or virus in culture; assay type: cell-based; conditions: Burkholderia pseudomallei, BP82, read-out: Minimum inhibitory concentration, B. pseudomallei Bp82
[2] = target: T1, PBP1a from Acinetobacter baumannii (ATCC 19606) (Acinetobacter baumannii, UniProt A0ABX6CK30); assay: Bocillin-FL fluorescence polarization competition binding, A. baumannii PBP1a; conditions: fluorescence polarization competition binding assay using Bocillin-FL; read-out: A. baumannii PBP1a Potency
T1 sequence (A0ABX6CK30 1-851): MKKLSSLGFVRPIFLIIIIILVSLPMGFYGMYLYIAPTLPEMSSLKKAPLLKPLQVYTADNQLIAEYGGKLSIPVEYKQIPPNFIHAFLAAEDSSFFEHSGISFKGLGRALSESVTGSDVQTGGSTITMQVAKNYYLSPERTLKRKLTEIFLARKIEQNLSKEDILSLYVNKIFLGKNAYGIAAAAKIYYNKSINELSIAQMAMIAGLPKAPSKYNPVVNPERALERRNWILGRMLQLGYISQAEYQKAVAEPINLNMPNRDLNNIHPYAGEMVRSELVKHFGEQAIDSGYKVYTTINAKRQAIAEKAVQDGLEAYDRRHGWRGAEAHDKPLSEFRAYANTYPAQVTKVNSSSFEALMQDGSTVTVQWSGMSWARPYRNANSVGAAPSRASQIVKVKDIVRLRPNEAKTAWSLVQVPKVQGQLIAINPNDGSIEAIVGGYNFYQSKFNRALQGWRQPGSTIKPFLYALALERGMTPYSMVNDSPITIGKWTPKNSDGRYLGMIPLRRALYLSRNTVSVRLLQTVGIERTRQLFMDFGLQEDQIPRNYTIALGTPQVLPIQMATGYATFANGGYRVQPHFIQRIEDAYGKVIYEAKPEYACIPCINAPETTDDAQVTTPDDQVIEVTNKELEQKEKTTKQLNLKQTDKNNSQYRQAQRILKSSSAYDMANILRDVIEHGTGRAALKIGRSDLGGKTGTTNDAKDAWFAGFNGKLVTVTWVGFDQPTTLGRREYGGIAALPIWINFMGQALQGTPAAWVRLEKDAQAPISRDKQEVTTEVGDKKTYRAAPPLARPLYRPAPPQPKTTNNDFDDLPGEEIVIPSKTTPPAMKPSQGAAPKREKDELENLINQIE
In short: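 Purified PBPs pre-incubated with inhibitor (E. coli PBP3 1.5 μM, 30 min; P. aeruginosa PBP3 0.75 μM, A. baumannii PBP1a 1 μM and PBP3 0.2 μM, 15 min), then Bocillin-FL 0.1 μM (0.05 μM for PBP1a) added; FP read up to 60 min. EC50 = concentration halving bound Bocillin-FL.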

`O=C(O)c1c(F)ccc2c1OB(O)[C@@H](NC(=O)C(NC(=O)N1CCN(C3CCN(C(=O)Nc4ccc(Cl)c(O)c4F)CC3)C(=O)C1=O)c1cc(F)c(O)c(O)c1Cl)C2` (stereo partly drawn) [Example 489, (3R)-3-(2-(4-(1-((4-chloro-2-fluoro-3-hydroxyphenyl)carbamoyl)piperidin-4-yl)-2,3-dioxopiperazine-1-carboxamido)-2-(2-chloro-5-fluoro-3,4-dihydroxyphenyl)acetamido)-7-fluoro-2-hydroxy-3,4-dihydro-2H-benzo[e][1,2]oxaborinine-8-carboxylic acid] gave an MIC (P. aeruginosa CDC-0110) of 2 to 4 µg/mL (≈ 2.34 to 4.69 µM).

`O=C(O)c1c(F)ccc2c1OB(O)[C@@H](NC(=O)[C@H](NC(=O)N1CCN(Cc3ccc(O)c(O)c3Cl)C(=O)C1=O)c1ccc(P(=O)(O)O)cc1)C2` (single isomer, unassigned) [Example 160] showed an MIC (E. coli AG100) of less than 1 µg/mL, an MIC (E. coli D22) of 2 to 4 µg/mL (≈ 2.72 to 5.44 µM) and an MIC (E. coli AG100A) of less than 1 µg/mL. The MIC (K. pneumoniae 848844) was 32 to 64 µg/mL (≈ 43.6 to 87.1 µM), the MIC (P. aeruginosa ATCC 27853) was less than 1 µg/mL and the MIC ([1]; Pseudomonas aeruginosa; read-out: MIC P. aeruginosa ΔmexAB-oprM) was less than 1 µg/mL.

In the case of `O=C(O)c1c(F)ccc2c1OB(O)[C@@H](NC(=O)C(NC(=O)N1CCN(C3CCN(C(=O)Nc4cc(O)c(F)cc4Cl)CC3)C(=O)C1=O)c1cc(F)c(O)c(O)c1Cl)C2` (stereo partly drawn) [Example 490, (3R)-3-(2-(4-(1-((2-chloro-4-fluoro-5-hydroxyphenyl)carbamoyl)piperidin-4-yl)-2,3-dioxopiperazine-1-carboxamido)-2-(2-chloro-5-fluoro-3,4-dihydroxyphenyl)acetamido)-7-fluoro-2-hydroxy-3,4-dihydro-2H-benzo[e][1,2]oxaborinine-8-carboxylic acid], the MIC (P. aeruginosa CDC-0110) was 2 to 4 µg/mL (≈ 2.34 to 4.69 µM).

For `O=C(NCCN1CCN(C(=O)N[C@@H](C(=O)N[C@H]2Cc3ccc(F)c(C(=O)O)c3OB2O)c2ccc(P(=O)(O)O)cc2)C(=O)C1=O)c1ccc(O)c(O)c1Cl` [Example 503, (R)-3-((R)-2-(4-(2-(2-chloro-3,4-dihydroxybenzamido)ethyl)-2,3-dioxopiperazine-1-carboxamido)-2-(4-phosphonophenyl)acetamido)-7-fluoro-2-hydroxy-3,4-dihydro-2H-benzo[e][1,2]oxaborinine-8-carboxylic acid], the MIC (B. pseudomallei Bp82) was less than 1 µg/mL and the MIC (P. aeruginosa CDC-0110) was less than 1 µg/mL.

`O=C(O)c1c(F)ccc2c1OB(O)[C@@H](NC(=O)[C@H](NC(=O)N1CCN(C3CCN(C(=O)Nc4ccc(O)c(O)c4Cl)CC3)C1=O)c1ccc(P(=O)(O)O)cc1)C2` (single isomer, unassigned) [Example 497] showed an MIC (B. pseudomallei Bp82) of less than 1 µg/mL and an MIC (P. aeruginosa CDC-0110) of less than 1 µg/mL.

With `O=C(O)c1c(F)ccc2c1OB(O)[C@@H](NC(=O)[C@H](NC(=O)N1CCN(C3CCN(Cc4ccncc4)CC3)C1=O)c1cc(F)c(O)c(O)c1Cl)C2` [Example 493, (R)-3-((R)-2-(2-chloro-5-fluoro-3,4-dihydroxyphenyl)-2-(2-oxo-3-(1-(pyridin-4-ylmethyl)piperidin-4-yl)imidazolidine-1-carboxamido)acetamido)-7-fluoro-2-hydroxy-3,4-dihydro-2H-benzo[e][1,2]oxaborinine-8-carboxylic acid] the MIC (P. aeruginosa CDC-0110) was less than 1 µg/mL.

`O=C(O)c1cccc2c1OB(O)[C@@H](NC(=O)C(NC(=O)N1CCN(Cc3cc(F)c(O)c(O)c3Cl)C(=O)C1=O)c1ccc(P(=O)(O)O)cc1)C2` (stereo partly drawn) [Example 164, (3R)-3-(2-(4-(2-chloro-5-fluoro-3,4-dihydroxybenzyl)-2,3-dioxopiperazine-1-carboxamido)-2-(4-phosphonophenyl)acetamido)-2-hydroxy-3,4-dihydro-2H-benzo[e][1,2]oxaborinine-8-carboxylic acid] showed a pIC50 [2] of less than 3.60.

In the case of `O=C(O)c1cccc2c1OB(O)[C@@H](NC(=O)[C@H](NC(=O)N1CCN(Cc3cc(F)c(O)c(O)c3Cl)C(=O)C1=O)c1ccc(P(=O)(O)O)cc1)C2` [Example 504, (R)-3-((R)-2-(4-(2-chloro-5-fluoro-3,4-dihydroxybenzyl)-2,3-dioxopiperazine-1-carboxamido)-2-(4-phosphonophenyl)acetamido)-2-hydroxy-3,4-dihydro-2H-benzo[e][1,2]oxaborinine-8-carboxylic acid], the MIC (E. coli AG100) was less than 1 µg/mL, the MIC (E. coli D22) was 2 to 4 µg/mL (≈ 2.72 to 5.44 µM) and the MIC (E. coli AG100A) was less than 1 µg/mL. It also gave an MIC (K. pneumoniae 848844) of 2 to 4 µg/mL (≈ 2.72 to 5.44 µM), an MIC (P. aeruginosa ATCC 27853) of less than 1 µg/mL and an MIC ([1]; Pseudomonas aeruginosa, read-out: MIC P. aeruginosa ΔmexAB-oprM) of less than 1 µg/mL. It also gave an MIC (P. aeruginosa CDC-0110) of less than 1 µg/mL.

For `O=C(O)c1c(F)ccc2c1OB(O)[C@@H](NC(=O)[C@H](NC(=O)N1CCN(C3CCN(C(=O)Nc4cc(F)c(F)c(O)c4F)CC3)C(=O)C1=O)c1cc(F)c(O)c(O)c1Cl)C2` [Example 491, (R)-3-((R)-2-(2-chloro-5-fluoro-3,4-dihydroxyphenyl)-2-(2,3-dioxo-4-(1-((2,4,5-trifluoro-3-hydroxyphenyl)carbamoyl)piperidin-4-yl)piperazine-1-carboxamido)acetamido)-7-fluoro-2-hydroxy-3,4-dihydro-2H-benzo[e][1,2]oxaborinine-8-carboxylic acid], the MIC (P. aeruginosa CDC-0110) was less than 1 µg/mL.

`O=C(O)c1c(F)ccc2c1OB(O)[C@@H](NC(=O)[C@H](NC(=O)N1CCN(C3CCN(Cc4cccnc4)CC3)C1=O)c1cc(F)c(O)c(O)c1Cl)C2` [Example 492, (R)-3-((R)-2-(2-chloro-5-fluoro-3,4-dihydroxyphenyl)-2-(2-oxo-3-(1-(pyridin-3-ylmethyl)piperidin-4-yl)imidazolidine-1-carboxamido)acetamido)-7-fluoro-2-hydroxy-3,4-dihydro-2H-benzo[e][1,2]oxaborinine-8-carboxylic acid] showed an MIC (P. aeruginosa CDC-0110) of less than 1 µg/mL.

`O=C(O)c1c(F)ccc2c1OB(O)[C@@H](NC(=O)C(NC(=O)N1CCN(C3CCN(C(=O)Nc4cc(O)c(F)c(F)c4)CC3)C(=O)C1=O)c1cc(F)c(O)c(O)c1Cl)C2` (stereo partly drawn) [Example 488, (3R)-3-(2-(2-chloro-5-fluoro-3,4-dihydroxyphenyl)-2-(4-(1-((3,4-difluoro-5-hydroxyphenyl)carbamoyl)piperidin-4-yl)-2,3-dioxopiperazine-1-carboxamido)acetamido)-7-fluoro-2-hydroxy-3,4-dihydro-2H-benzo[e][1,2]oxaborinine-8-carboxylic acid] was tested, and the MIC (P. aeruginosa CDC-0110) was less than 1 µg/mL.

Compound `O=C(O)c1c(F)ccc2c1OB(O)[C@@H](NC(=O)C(NC(=O)N1CCN(C3CCN(C(=O)Nc4c(F)ccc(O)c4F)CC3)C(=O)C1=O)c1cc(F)c(O)c(O)c1Cl)C2` (stereo partly drawn) [Example 487, (3R)-3-(2-(2-chloro-5-fluoro-3,4-dihydroxyphenyl)-2-(4-(1-((2,6-difluoro-3-hydroxyphenyl)carbamoyl)piperidin-4-yl)-2,3-dioxopiperazine-1-carboxamido)acetamido)-7-fluoro-2-hydroxy-3,4-dihydro-2H-benzo[e][1,2]oxaborinine-8-carboxylic acid] has an MIC (P. aeruginosa CDC-0110) of less than 1 µg/mL.

`O=C(O)c1c(F)ccc2c1OB(O)[C@@H](NC(=O)C(NC(=O)N1CCN(C3CCN(C(=O)Nc4cc(O)cc(F)c4)CC3)C(=O)C1=O)c1cc(F)c(O)c(O)c1Cl)C2` (stereo partly drawn) [Example 481, (3R)-3-(2-(2-chloro-5-fluoro-3,4-dihydroxyphenyl)-2-(4-(1-((3-fluoro-5-hydroxyphenyl)carbamoyl)piperidin-4-yl)-2,3-dioxopiperazine-1-carboxamido)acetamido)-7-fluoro-2-hydroxy-3,4-dihydro-2H-benzo[e][1,2]oxaborinine-8-carboxylic acid] gave a pIC50 [2] of less than 3.60.

Work on `O=C(O)c1c(F)ccc2c1OB(O)[C@@H](NC(=O)C(NC(=O)N1CCN(C3CCN(C(=O)Nc4cc(O)cc(Cl)c4)CC3)C(=O)C1=O)c1cc(F)c(O)c(O)c1Cl)C2` (stereo partly drawn) [Example 484, (3R)-3-(2-(2-chloro-5-fluoro-3,4-dihydroxyphenyl)-2-(4-(1-((3-chloro-5-hydroxyphenyl)carbamoyl)piperidin-4-yl)-2,3-dioxopiperazine-1-carboxamido)acetamido)-7-fluoro-2-hydroxy-3,4-dihydro-2H-benzo[e][1,2]oxaborinine-8-carboxylic acid] yielded a pIC50 [2] of less than 3.60.

— patent US20240270762A1, “PENICILLIN-BINDING PROTEIN INHIBITORS” (priority 2021, published 2024)
